These results are taken from patent US9474790B2, “Stable, protracted GLP-1/glucagon receptor co-agonists for medical use” (Novo Nordisk A/S, priority 2013, dated 2016).

Numbered stars: 1 amine (or outer) side, 2 acyl side, 3 side chain; on linkers, the order of the positions; unused ones are H or OH. Square brackets hold non-standard residues; d marks the D form. Side chains are listed from the residue outwards. Peptide text beside a SMILES is read from it. * marks the point of attachment. C18 diacid = O=C(O)CCCCCCCCCCCCCCCCC(=O)*; γGlu = O=C(O)[C@H](CCC(=O)[*:2])N[*:1]; Ac4c = NC1(C(=O)O)CCC1; AEEA = NCCOCCOCC(=O)O; Aib = CC(C)(N)C(=O)O

This data set can be described thus: Thioflavin T (ThT) fibrillation assay for physical stability. It counts as physicochemical. Particulars: 250 μM in 10 mM HEPES buffer, pH 7.5, 37° C., shaking 960 rpm. In outline:
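Peptide at 250 μM in 10 mM HEPES pH 7.5 with 1 μM ThT, at 37° C with 960 rpm orbital shaking. Fluorescence (ex 444/em 485 nm) read every 20 min after 10 min pre-incubation; sigmoidal fit gives lag time (t0−2τ) and kapp (1/τ). Recovery is RP-HPLC peptide in the centrifuged, 0.22 μm-filtered supernatant as % of initial.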
For the compound `CC(C)C[C@H](NC(=O)[C@H](Cc1ccc(O)cc1)NC(=O)[C@H](CCCCN)NC(=O)[C@H](CO)NC(=O)[C@H](CC(C)C)NC(=O)[C@H](CC(=O)O)NC(=O)[C@H](CO)NC(=O)[C@@H](NC(=O)[C@H](Cc1ccccc1)NC(=O)[C@@H](NC(=O)CNC(=O)[C@H](CCC(N)=O)NC(=O)C(C)(C)NC(=O)[C@@H](N)Cc1c[nH]cn1)[C@@H](C)O)[C@@H](C)O)C(=O)N[C@@H](CC(=O)O)C(=O)N[C@@H](CO)C(=O)N[C@@H](CCCNC(=N)N)C(=O)N[C@@H](CCCNC(=N)N)C(=O)N[C@@H](C)C(=O)N[C@@H](CCCNC(=N)N)C(=O)N[C@@H](CCC(=O)O)C(=O)N[C@@H](Cc1ccccc1)C(=O)N[C@H](C(=O)N[C@@H](CCC(N)=O)C(=O)N[C@@H](Cc1c[nH]c2ccccc12)C(=O)N[C@@H](CC(C)C)C(=O)N[C@@H](CC(C)C)C(=O)N[C@@H](CCCCNC(=O)CC[C@H](NC(=O)CC[C@H](NC(=O)COCCOCCNC(=O)COCCOCCNC(=O)CC[C@H](NC(=O)CCCCCCCCCCCCCCCCC(=O)O)C(=O)O)C(=O)O)C(=O)O)C(=O)N[C@H](C(N)=O)[C@@H](C)O)C(C)C` [Example 56, N^ε28-[(4S)-4-carboxy-4-[[(4S)-4-carboxy-4-[[2-[2-[2-[[2-[2-[2-[[(4S)-4-carboxy-4-(17-carboxyheptadecanoylamino)butanoyl]amino]ethoxy]ethoxy]acetyl]amino]ethoxy]ethoxy]acetyl]amino]butanoyl]amino]butanoyl]-[Aib2,Leu10,Arg20,Glu21,Leu27,Lys28]-Glucagon amide] (H-H[Aib]QGTFTSDLSKYLDSRRAREFVQWLLK([γGlu-γGlu-AEEA-AEEA-γGlu-C18 diacid])T-NH2), the THT assay Lag time (Ex. 76) was determined as 45 h. With `CC(C)C[C@H](NC(=O)[C@H](Cc1ccc(O)cc1)NC(=O)[C@H](CCCNC(=N)N)NC(=O)[C@H](CO)NC(=O)[C@H](CC(C)C)NC(=O)[C@H](CC(=O)O)NC(=O)[C@H](CO)NC(=O)[C@@H](NC(=O)[C@H](Cc1ccccc1)NC(=O)[C@@H](NC(=O)CNC(=O)[C@H](CCC(N)=O)NC(=O)C1(NC(=O)[C@@H](N)Cc2c[nH]cn2)CCC1)[C@@H](C)O)[C@@H](C)O)C(=O)N[C@@H](CCC(=O)O)C(=O)N[C@@H](CO)C(=O)N[C@@H](CCCNC(=N)N)C(=O)N[C@@H](CCCNC(=N)N)C(=O)N[C@@H](C)C(=O)N[C@@H](CCCNC(=N)N)C(=O)N[C@@H](CCC(=O)O)C(=O)N[C@@H](Cc1ccccc1)C(=O)N[C@H](C(=O)N[C@@H](CCC(N)=O)C(=O)N[C@@H](Cc1c[nH]c2ccccc12)C(=O)N[C@@H](CC(C)C)C(=O)N[C@@H](CC(C)C)C(=O)N[C@@H](CCCCNC(=O)CC[C@H](NC(=O)CC[C@H](NC(=O)COCCOCCNC(=O)COCCOCCNC(=O)CC[C@H](NC(=O)CC[C@H](NC(=O)CCCCCCCCCCCCCCCCC(=O)O)C(=O)O)C(=O)O)C(=O)O)C(=O)O)C(=O)N[C@H](C(N)=O)[C@@H](C)O)C(C)C` [Example 59, N^ε28-[(4S)-4-carboxy-4-[[(4S)-4-carboxy-4-[[2-[2-[2-[[2-[2-[2-[[(4S)-4-carboxy-4-[[(4S)-4-carboxy-4-(17-carboxyheptadecanoylamino)butanoyl]amino]butanoyl]amino]ethoxy]ethoxy]acetyl]amino]ethoxy]ethoxy]acetyl]amino]butanoyl]amino]butanoyl]-[Acb2,Leu10,Arg12,Glu15,Arg20,Glu21,Leu27,Lys28]-Glucagon amide] (H-H[Ac4c]QGTFTSDLSRYLESRRAREFVQWLLK([γGlu-γGlu-AEEA-AEEA-γGlu-γGlu-C18 diacid])T-NH2; N-terminus assumed) the figure was 12 h; with `CC(C)C[C@H](NC(=O)[C@H](Cc1ccc(O)cc1)NC(=O)[C@H](CCCCN)NC(=O)[C@H](CO)NC(=O)[C@H](CC(C)C)NC(=O)[C@H](CC(=O)O)NC(=O)[C@H](CO)NC(=O)[C@@H](NC(=O)[C@H](Cc1ccccc1)NC(=O)[C@@H](NC(=O)CNC(=O)[C@H](CCC(N)=O)NC(=O)C(C)(C)NC(=O)[C@@H](N)Cc1c[nH]cn1)[C@@H](C)O)[C@@H](C)O)C(=O)N[C@@H](CCC(=O)O)C(=O)N[C@@H](CO)C(=O)N[C@@H](CCCNC(=N)N)C(=O)N[C@@H](CCCNC(=N)N)C(=O)N[C@@H](C)C(=O)N[C@@H](CCCNC(=N)N)C(=O)N[C@@H](CCC(=O)O)C(=O)N[C@@H](Cc1ccccc1)C(=O)N[C@H](C(=O)N[C@@H](CCC(N)=O)C(=O)N[C@@H](Cc1c[nH]c2ccccc12)C(=O)N[C@@H](CC(C)C)C(=O)N[C@@H](CC(C)C)C(=O)N[C@@H](CCCCNC(=O)CC[C@H](NC(=O)CC[C@H](NC(=O)COCCOCCNC(=O)COCCOCCNC(=O)CC[C@H](NC(=O)CC[C@H](NC(=O)CCCCCCCCCCCCCCCCC(=O)O)C(=O)O)C(=O)O)C(=O)O)C(=O)O)C(=O)N[C@H](C(N)=O)[C@@H](C)O)C(C)C` [Example 60, N^ε28-[(4S)-4-carboxy-4-[[(4S)-4-carboxy-4-[[2-[2-[2-[[2-[2-[2-[[(4S)-4-carboxy-4-[[(4S)-4-carboxy-4-(17-carboxyheptadecanoylamino)butanoyl]amino]butanoyl]amino]ethoxy]ethoxy]acetyl]amino]ethoxy]ethoxy]acetyl]amino]butanoyl]amino]butanoyl]-[Aib2,Leu10,Glu15,Arg20,Glu21,Leu27,Lys28]-Glucagon amide] (H-H[Aib]QGTFTSDLSKYLESRRAREFVQWLLK([γGlu-γGlu-AEEA-AEEA-γGlu-γGlu-C18 diacid])T-NH2; N-terminus assumed), 45 h; with `CC(C)C[C@H](NC(=O)[C@H](Cc1ccc(O)cc1)NC(=O)[C@H](CCCCN)NC(=O)[C@H](CO)NC(=O)[C@H](CC(C)C)NC(=O)[C@H](CC(=O)O)NC(=O)[C@H](CO)NC(=O)[C@@H](NC(=O)[C@H](Cc1ccccc1)NC(=O)[C@@H](NC(=O)CNC(=O)[C@H](CCC(N)=O)NC(=O)C1(NC(=O)[C@@H](N)Cc2c[nH]cn2)CCC1)[C@@H](C)O)[C@@H](C)O)C(=O)N[C@@H](CCC(=O)O)C(=O)N[C@@H](CO)C(=O)N[C@@H](CCCNC(=N)N)C(=O)N[C@@H](CCCNC(=N)N)C(=O)N[C@@H](C)C(=O)N[C@@H](CCCNC(=N)N)C(=O)N[C@@H](CCC(=O)O)C(=O)N[C@@H](Cc1ccccc1)C(=O)N[C@H](C(=O)N[C@@H](CCC(N)=O)C(=O)N[C@@H](Cc1c[nH]c2ccccc12)C(=O)N[C@@H](CC(C)C)C(=O)N[C@@H](CC(C)C)C(=O)N[C@@H](CCCCNC(=O)CC[C@H](NC(=O)CC[C@H](NC(=O)COCCOCCNC(=O)COCCOCCNC(=O)CC[C@H](NC(=O)CC[C@H](NC(=O)CCCCCCCCCCCCCCCCC(=O)O)C(=O)O)C(=O)O)C(=O)O)C(=O)O)C(=O)N[C@H](C(N)=O)[C@@H](C)O)C(C)C` [Example 61, N^ε28-[(4S)-4-carboxy-4-[[(4S)-4-carboxy-4-[[2-[2-[2-[[2-[2-[2-[[(4S)-4-carboxy-4-[[(4S)-4-carboxy-4-(17-carboxyheptadecanoylamino)butanoyl]amino]butanoyl]amino]ethoxy]ethoxy]acetyl]amino]ethoxy]ethoxy]acetyl]amino]butanoyl]amino]butanoyl]-[Acb2,Leu10,Glu15,Arg20,Glu21,Leu27,Lys28]-Glucagon amide] (H-H[Ac4c]QGTFTSDLSKYLESRRAREFVQWLLK([γGlu-γGlu-AEEA-AEEA-γGlu-γGlu-C18 diacid])T-NH2; N-terminus assumed), 20 h.

Compound `CC(C)C[C@H](NC(=O)[C@H](Cc1ccc(O)cc1)NC(=O)[C@H](CCCCN)NC(=O)[C@H](CO)NC(=O)[C@H](CC(C)C)NC(=O)[C@H](CC(=O)O)NC(=O)[C@H](CO)NC(=O)[C@@H](NC(=O)[C@H](Cc1ccccc1)NC(=O)[C@@H](NC(=O)CNC(=O)[C@H](CCC(N)=O)NC(=O)C1(NC(=O)[C@@H](N)Cc2c[nH]cn2)CCC1)[C@@H](C)O)[C@@H](C)O)C(=O)N[C@@H](CCC(=O)O)C(=O)N[C@@H](CO)C(=O)N[C@@H](CCCNC(=N)N)C(=O)N[C@@H](CCCNC(=N)N)C(=O)N[C@@H](C)C(=O)N[C@@H](CCC(N)=O)C(=O)N[C@@H](CC(=O)O)C(=O)N[C@@H](Cc1ccccc1)C(=O)N[C@H](C(=O)N[C@@H](CCC(N)=O)C(=O)N[C@@H](Cc1c[nH]c2ccccc12)C(=O)N[C@@H](CC(C)C)C(=O)N[C@@H](CC(C)C)C(=O)N[C@@H](CCCCNC(=O)COCCOCCNC(=O)COCCOCCNC(=O)CC[C@H](NC(=O)CC[C@H](NC(=O)CC[C@H](NC(=O)CCCCCCCCCCCCCCCCC(=O)O)C(=O)O)C(=O)O)C(=O)O)C(=O)N[C@H](C(N)=O)[C@@H](C)O)C(C)C` [Example 63, N^ε28-[2-[2-[2-[[2-[2-[2-[[(4S)-4-carboxy-4-[[(4S)-4-carboxy-4-[[(4S)-4-carboxy-4-(17-carboxyheptadecanoylamino)butanoyl]amino]butanoyl]amino]butanoyl]amino]ethoxy]ethoxy]acetyl]amino]ethoxy]ethoxy]acetyl]-[Acb2,Leu10,Glu15,Leu27,Lys28]-Glucagon amide] (H-H[Ac4c]QGTFTSDLSKYLESRRAQDFVQWLLK([AEEA-AEEA-γGlu-γGlu-γGlu-C18 diacid])T-NH2; N-terminus assumed) yielded a THT assay Lag time (Ex. 76) of 45 h. With `CC(C)C[C@H](NC(=O)[C@H](Cc1ccc(O)cc1)NC(=O)[C@H](CCCCN)NC(=O)[C@H](CO)NC(=O)[C@H](CC(C)C)NC(=O)[C@H](CC(=O)O)NC(=O)[C@H](CO)NC(=O)[C@@H](NC(=O)[C@H](Cc1ccccc1)NC(=O)[C@@H](NC(=O)CNC(=O)[C@H](CCC(N)=O)NC(=O)C(C)(C)NC(=O)[C@@H](N)Cc1c[nH]cn1)[C@@H](C)O)[C@@H](C)O)C(=O)N[C@@H](CC(=O)O)C(=O)N[C@@H](C)C(=O)N[C@@H](CCCNC(=N)N)C(=O)N[C@@H](CCCNC(=N)N)C(=O)N[C@@H](C)C(=O)N[C@@H](CCCNC(=N)N)C(=O)N[C@@H](CC(=O)O)C(=O)N[C@@H](Cc1ccccc1)C(=O)N[C@H](C(=O)N[C@@H](CCC(N)=O)C(=O)N[C@@H](Cc1c[nH]c2ccccc12)C(=O)N[C@@H](CC(C)C)C(=O)N[C@@H](CC(C)C)C(=O)N[C@@H](CC(N)=O)C(=O)N[C@@H](CCCCNC(=O)CC[C@H](NC(=O)CC[C@H](NC(=O)COCCOCCNC(=O)COCCOCCNC(=O)CC[C@H](NC(=O)CCCCCCCCCCCCCCCCC(=O)O)C(=O)O)C(=O)O)C(=O)O)C(N)=O)C(C)C` [Example 65] (H-H[Aib]QGTFTSDLSKYLDARRARDFVQWLLNK([γGlu-γGlu-AEEA-AEEA-γGlu-C18 diacid])-NH2; N-terminus assumed) the figure was 45 h.
